Results reported in US7645765B2, “Use of moxaverin for treating erectile dysfunction, forms of dementia or diseases associated to an arteriosclerotic occlusion” (Molecular and Clinical Drug Research, priority 2001, dated 2010).
In brackets after ≈: the same amount, converted by molar mass. Where two headings read alike, the source gives them in different places. Values belong to the molecule of their own block, whether it stands above or below them.

What was measured:
[1] = Solubility of moxaverin hydrochloride in undiluted PEG 200 / PEG 400 at 37° C., pH 7.4 adjustment and dilution with Tyrode's solution; format: physicochemical
Description: Moxaverin hydrochloride was dissolved completely, as a pure substance, in increasing mass proportions (see Table 1), in 10 ml commercially available polyethylene glycol having an average molecular weight of 200 and 400, respectively (manufactured by Sigma, PEG 200 and 400, <1% H2O), while stirring constantly, at a temperature of 37° C.
Subsequently, the dissolved moxaverin was converted to an aqueous solution, while stirring constantly, by adding 1×Tyrode's solution with a normal extracellular electrolyte composition.
To determine the pH dependence of the solution behavior of moxaverin hydrochloride, a pH of 7.4 was adjusted in another series of experiments, after complete dissolution in undiluted PEG, by adding NaOH.

[2] = for pH: 26.6° C.
Description: Moxaverin hydrochloride was dissolved completely, as a pure substance, in increasing mass proportions (see Table 1), […], respectively (manufactured by Sigma, PEG 200 and 400, <1% H2O), while stirring constantly, […]

[3] = Solubility in water / aqueous solution; format: physicochemical
Description: Also, this low concentration of moxaverin would be difficult to compensate by means of the administration of larger volumes. In addition, the stability of active substances in highly concentrated solutions is generally greater than in solutions having a low concentration. In the form of the free base, moxaverin is practically insoluble in water (<1 mg/ml).

[4] = Direct dissolving of moxaverin HCl in 5-10% diluted PEG; format: physicochemical; details: 5-10% PEG 400 or PEG 200 in H2O or Tyrode's solution, 37° C.
Description: In comparison, an attempt was made to dissolve moxaverin HCl in 5-10% PEG diluted with H2O and Tyrode's solution, respectively. (In other words, analogous to the series of experiments shown in the table, 15 to 40 mg moxaverin HCl were added to 10 ml 10% PEG 400, or 7.5 to 20 mg moxaverin HCl were added to 10 ml 5% PEG 400, and stirred at 37° C.) However, directly dissolving the pure substance in diluted PEG was not possible either in diluted PEG 400 or in diluted PEG 200.

[5] = Activity of moxaverin HCl dissolved in pH-neutral PEG solution; details: pH-neutral diluted PEG solution
[6] = cited from earlier work
[7] = Stability of pH-neutral aqueous PEG solutions of moxaverin; format: physicochemical
[8] = tested on: patients having erectile dysfunction; assay: Patient study: intracavernous injection of aqueous solutions of moxaverin; format: in vivo, human
Description: Twenty patients having a completely clarified genesis of erectile dysfunction were given intracavernous injections (injection therapy of erectile tissue) of aqueous solutions of moxaverin. In this connection, 1 ml of an injection solution containing 1 to 10 mg moxaverin hydrochloride per ml end volume, in Tyrode's buffer, at a pH=7.4 and an end concentration of 2.5% PEG 400 (in the case of 1 mg moxaverin HCl/ml) up to 25% PEG 400 (in the case of 10 mg moxaverin HCl/ml) were administered per individual injection.

smooth muscle cells = details: more effective than papaverin; cited from earlier work
[9] = after oral administration; cited from earlier work
[10] = 150 mg in 10 ml PEG 200, 37° C.
[11] = 150 mg in 10 ml PEG 400, 37° C.
[12] = 200 mg in 10 ml PEG 200, 37° C.
[13] = 200 mg in 10 ml PEG 400, 37° C.
[14] = 250 mg in 10 ml PEG 200, 37° C.
[15] = 250 mg in 10 ml PEG 400, 37° C.
[16] = 300 mg in 10 ml PEG 200, 37° C.
[17] = 300 mg in 10 ml PEG 400, 37° C.
[18] = 350 mg in 10 ml PEG 200, 37° C.
[19] = 350 mg in 10 ml PEG 400, 37° C.
[20] = 400 mg in 10 ml PEG 200, 37° C.
[21] = 400 mg in 10 ml PEG 400, 37° C.

concentration at which moxaverin HCl precipitated after neutralization ([1]; PEG 200, pH 7.4): ≥ 35000 µg/mL | moxaverin concentration achieved in undiluted polyethylene glycol 400 ([1]; undiluted PEG 400, 37° C.): up to 40 mg/ml | Solubility [2]: Dissolved | maximum brought into solution in EtOH [2]: ≤ 200 mg/mL | pH ([2]; 10 mg/ml in ethanol 90%): 3.49 | pH ([2]; 20 mg/ml in ethanol 90%): 3.36 | pH ([2]; 30 mg/ml in ethanol 90%): 3.30 | pH ([2]; 40 mg/ml in ethanol 90%): 3.19 | pH ([2]; 50 mg/ml in ethanol 90%): 3.13 | pH ([2]; 60 mg/ml in ethanol 90%): 3.11 | pH ([2]; 100 mg/ml in ethanol 90%): 3.00 | pH ([2]; 200 mg/ml in ethanol 90%): 2.96 | maximum brought into solution in H2O [3]: < 1 mg/mL | directly dissolving the pure substance in diluted PEG [4]: not possible
SMILES: CCc1cc2cc(OC)c(OC)cc2c(Cc2ccccc2)n1.Cl [moxaverin hydrochloride]
activity of the dissolved moxaverin HCl [5]: active | maximum concentration of moxaverin HCl in aqueous solution ([6]; aqueous solutions having a physiological pH): ≤ 1 mg/mL

Solubility at pH 7.4 [1, 10]: Yes | pH [1, 10]: 3.05 | Solubility at pH 7.4 [1, 11]: Yes | pH [1, 11]: 2.53 | Solubility at pH 7.4 [1, 12]: Yes | pH [1, 12]: 3.06 | Solubility at pH 7.4 [1, 13]: Yes | pH [1, 13]: 2.33 | Solubility at pH 7.4 [1, 14]: Yes | pH [1, 14]: 2.97 | Solubility at pH 7.4 [1, 15]: Yes | pH [1, 15]: 2.27 | Solubility at pH 7.4 [1, 16]: Yes | pH [1, 16]: 2.95 | Solubility at pH 7.4 [1, 17]: Yes | pH [1, 17]: 2.30 | Solubility at pH 7.4 [1, 18]: No | pH [1, 18]: 2.87 | Solubility at pH 7.4 [1, 19]: Yes | pH [1, 19]: 2.22 | Solubility at pH 7.4 [1, 20]: No | pH [1, 20]: 2.75 | Solubility at pH 7.4 [1, 21]: Yes | pH [1, 21]: 2.12 | solution behaviour after pH neutralization ([1]; PEG 400, high concentrations, pH 7.4): remained in solution | maximum moxaverin concentration in the finished aqueous medicinal solution ([1]; PEG as solubilizer, upper limit 30% PEG): approximately 12 mg/ml | precipitation on dilution of pH-neutral solutions ([1]; low PEG concentrations of 5% and less): did not precipitate | Solubility ([1]; undiluted polyethylene glycol (PEG), 37 °C, organic solvent or mixture, thermodynamic from solid, undiluted PEG, read-out: maximum solubility in undiluted PEG): ~40 mg/mL (≈ 130 mM) | time the solutions remained stable without precipitation [7]: more than six months | pain in connection with the injection ([8]; intracavernous injection): No pain was observed
SMILES: CCc1cc2cc(OC)c(OC)cc2c(Cc2ccccc2)n1 [moxaverin, 1-benzyl-3-ethyl-6,7-dimethoxyisoquinoline]
behaviour on dilution with 1×Tyrode's solution ([1]; dissolved in PEG, diluted as desired): without the dissolved moxaverin precipitating | side effects such as priapism ([8]; intracavernous injection): not observed | cases with sufficiently strong penile erection ([8]; intracavernous, 1 to 10 mg moxaverin hydrochloride in 1 ml, 20 patients): more than 90% | degree of erection E ([8]; scale from 0 to 5, intracavernous injection): 4-5 | solubility in water ([6]; free base, water): < 1 mg/mL | effectiveness as musculotropic spasmolytic relative to parent substance papaverin (smooth muscle cells): 2.5 × | toxicity relative to papaverin [9]: ten times less toxic
